This note sets out measurements from patent US6150367A, “1-[4-arylpiperazin-1-yl]-3-[2-oxopyrrolidin/piperidin-1-yl]propanes and their use in medical treatments” (Council of Scientific & Industrial Research, priority 1997, dated 2000).

Some results are limits rather than exact numbers.

One assay concerns anaesthetized cat. As to the kind of experiment: Effect on blood pressure and adrenaline vasopressure response in anaesthetized cat, i.v. (Table 2). The note with it: for inhibition at 2 µmol/kg / inhibition at 10 µmol/kg: Felis catus, iv. The class given is in vivo. As to the method:
(§1) (a) Cats (2.6-4.0 kg) of either sex anaesthetized with pentobarbitone sodium (40 mg/kg i.v.) and showing basal mean arterial blood plessure below 150 mm (Hg) were categorised as normotensive and ahove 150 mm Hg as hypertensive. Arterial blood pressure (EP) was recorded from one of the carotid artery through a stathum P23 DC pressure transducer and 7P1 low level DC preamplifier on a Grass Model P7 Polygraph, Signals from 7P1 preamplifier were used to trigger 7P4 Tachograph preamplifier for recording the heart rate (HR). Right femoral vein and Trachea were cannulated for intravenous injections and artificial ventilation respectively. Control responses to intravenous injection of noradrenaline (2-4 ug); acetyl choline (1-2 ug); histamine (1-2 ug) and isoprenaline (1-2 ug) were taken before and after the administration of test doses of each compounds.

Assay [1] deals with Langendorff perfused rat heart. As to the kind of experiment: Compound at reperfusion after brief (16 min.) ischemic insult (Table 3). The note with it: 0.001 ug/ml at reperfusion.
The subject of assay [2] is Naturally occurring hypertensive cat. Briefly: Effect on blood pressure, heart rate and adrenaline vasopressor response, anaesthetized naturally occurring hypertensive cat. The class given is in vivo. As to the method: (§2) 2. Effect on blood pressure, heart rate and adrenaline vasopressor response of anaesthetized (pentobarbitone sodium 40 & 60 mg/kg i.p. in cat and rat respectively) normotensive & hypertensive rat & cat model preparations.
as §1

Another assay concerns Normotensive cat. As to the kind of experiment: Effect on blood pressure, heart rate and adrenaline vasopressor response, anaesthetized normotensive cat. The assay is classed as in vivo. As to the method: as §2, §1
In assay [3] the test system is Hypertensive rat model preparation. As to the kind of experiment: Effect on blood pressure, heart rate and adrenaline vasopressor response, hypertensive rat model preparation. The class given is in vivo. The method, then:
as §2

A further assay deals with Spinal transected cat. As to the kind of experiment: Site of action: spinal transected cat. The note with it: dose 2-10 umol/kg i.d. The class given is in vivo.
A further assay is described as follows: Site of action: ICV. The assay is classed as in vivo. The note with it: dose 0.34-1.36.
Another assay deals with Isolated aortic strip. As to the kind of experiment: Isolated aortic strip, endothelin induced contraction. The text has this:
(i) Isolated aortic strip:

For assay [4], the system named is Isolated Guinea pig ileum. As to the kind of experiment: Isolated Guinea pig ileum preparation, antihistaminic activity. The note with it: 0.5-5.0 ug/ml.
Assay [5] concerns histamine induced bronchoconstriction. Briefly: Konzett and Rossler preparation, histamine induced bronchoconstriction. To be noted: in vivo. The text has this: (iv) Konzett and Rossler preparation:
The subject of a further assay is Rat aortic ring. As to the kind of experiment: Rat aortic ring preparation, NE induced contraction. The text has this:
(v) Rat aortic ring preparation:

In assay [6] the test system is cat. Briefly: In vivo drug antagonism studies at 2 uMol dose i.v. in cat. The note with it: 2 uMol i.v. The text has this: (B) In viva Drug antagonism studies at 2 uMol dose i.v. in cat: […]
For assay [7], the system named is cat. Briefly: Comparative antihypertensive effect with clinically used antihypertensive drugs at 2 uMol/kg i.v. in cat. The class given is in vivo.
From the text: (4) Comparative antihypertensive effect with clinically used antihypertensive drugs at 2 uMol/kg i.v. dose in cat
Assay [8] is described as follows: Cardioprotective effect against myocardial stunning. The note with it: in vivo.
Assay [9] relates to Langendorff perfused rat heart. As to the kind of experiment: Langendorff perfused rat heart, prolonged global ischemia, compound given at reperfusion (Table 1). As to the method:
Further, in Langendorff perfused rat heart preparation subjected to even upto […]. global ischemia, the compound at 0.001 ug/ml conc. given at the time of reperfusion revived normal rhythmic contraction started within […]. (Table 1) and incidence of reperfusion induced arrhythmia were abolished.

[10] abbreviates: 0.001 ug/ml at reperfusion, 90 min. ischemic insult.
[11] abbreviates: 10^-6 M, ischemic insult 45 min.

With `O=C1CCCN1CCCN1CCN(c2ccccn2)CC1` [2-Pyridyl, n=1], in the assay with anaesthetized cat (2.0 umol/kg i.v.), the “Dur.” value is 16 min and the inhibition at 2 µmol/kg amounted to 40%. Besides, in the assay on anaesthetized cat (10.0 umol/kg i.v.), the “Dur.” value turned out to be 43 min and the inhibition at 10 µmol/kg is -20 to 0%. Moreover, in [1], the “Onset” value is 2.0 min, the “Percentage recovery 15 min.” value came to 47.60% and the “Percentage recovery 30 min.” value is reported as 71.40%.
Regarding `COc1ccccc1N1CCN(CCCN2CCCC2=O)CC1` [C6 H4-2-OCH3, n=1], in the assay on anaesthetized cat (2.0 umol/kg i.v.), the “Dur.” value was 19 min and the inhibition at 2 µmol/kg came out at 47%. Also, in the assay with anaesthetized cat (10.0 umol/kg i.v.), the “Dur.” value was 67 min and the inhibition at 10 µmol/kg was greater than 100%. In addition, in assay [1], the “Onset” value was 2.0 min, the “Percentage recovery 15 min.” value amounted to 45.40% and the “Percentage recovery 30 min.” value turned out to be 59.09%.
Regarding `O=C1CCCN1CCCN1CCN(c2cccc(Cl)c2)CC1` [Example 2, 1-[4-(3-chlorophenyl)piperazin-1-yl]-3-[2-oxopyrrolidin-1-yl]propane], in [1] (listed as C6 H4 -3-C1, n=1), the “Percentage recovery 15 min.” value is recorded as 50.00% and the “Percentage recovery 30 min.” value is on record as 88.80%. Also, in assay [1] (listed as C6 H4 -3-Cl, n=1), the “Onset” value was 3.0 min, the “Percentage recovery 15 min.” value stood at 31.50% and the “Percentage recovery 30 min.” value turned out to be 39.40%.
For `O=C1CCCN1CCCN1CCN(c2ccc(Cl)cc2)CC1` [Example 3, 1-[4-(4-chlorophenyl)piperazin-1-yl]-3-[2-oxopyrrolidin-1-yl]propane], in assay [1], the “Percentage recovery 15 min.” value is on record as 87.50% and the “Percentage recovery 30 min.” value is 120.80%.
On to `O=C1CCCN1CCCN1CCN(c2cccc(F)c2)CC1` [Example 4, 1-[4-(3-fluorophenyl)piperazin-1-yl)-3-[2-oxopyrrolidin-1-yl]propane], for which, in [1], the “Percentage recovery 15 min.” value came to 120.00% and the “Percentage recovery 30 min.” value is listed as 180.00%.
For `O=C1CCCN1CCCN1CCN(c2ccc(F)cc2)CC1` [Example 5, 1-[4-(4-fluorophenyl)piperazin-1-yl]-3-[2-oxopyrrolidin-1-yl]propane], the “B.P. Fall (%)” value is on record as 16% in [2] (10 uMol/kg i.d.); 22% in assay [2] (20 uMol/kg i.d.); 22% with Normotensive cat (10 uMol/kg i.d.); 21% with Normotensive cat (20 uMol/kg i.d.); 27% in assay [3] (5 uMol/kg i.d.); 22% in assay [3] (10 uMol/kg i.d.). Besides, the “B.P. Fall (%)” value is recorded as 29% in assay [3] (20 uMol/kg i.d.), 14-18% in the assay on Spinal transected cat and 8-10% in “Site of action: ICV”. The “B.P. fall Dur.” value was 110 min in assay [2] (10 uMol/kg i.d.); greater than 156.75 min in [2] (20 uMol/kg i.d.); 85 min in the assay on Normotensive cat (10 uMol/kg i.d.); greater than 102.5 min in the assay on Normotensive cat (20 uMol/kg i.d.); 51 min in assay [3] (5 uMol/kg i.d.); 76 min in assay [3] (10 uMol/kg i.d.). Besides, the “B.P. fall Dur.” value in assay [3] (20 uMol/kg i.d.) was 100 min; in the assay on Spinal transected cat, 15 to 30 min; in the assay “Site of action: ICV”, 10 to 15 min. In [3] (5 uMol/kg i.d.), the Heart rate Pre treatment came out at 350 beats/min. The same molecule displayed a Heart rate post treatment in [3] (5 uMol/kg i.d.) of 370 beats/min. Also, in the assay with Isolated aortic strip, the Endothelin induced contraction result was “inhibited significantly”. Also, the “Response to endothelin after washing the preparation” value with Isolated aortic strip (after washing) is listed as “relaxation rather than contraction”. Further, the antihistaminic activity result in assay [4] is recorded as “significant antihistaminic activity”. The “antihistaminic activity against histamine induced bronchoconstriction” value in [5] is listed as “some antihistaminic activity”. The NE induced contraction entry in the assay with Rat aortic ring is recorded as “inhibited”. For the same molecule, the “reduction of the fall in pressure” value in the assay on cat [6] (pretreatment with KATP blocker glibenclamide) is “only partially reduced”. The “alteration of antihypertensive effect” value in the assay with cat [6] (pretreatment with atropine sulphate, mepyramine maleate, propranolol or yohimbine) is “failed to alter”. In addition, the “Dur.” value in the assay on cat [7] was found to be 25 min. Moreover, in [8], the “cardioprotective effect against myocardial stunning” value is reported as “cardioprotective effect against myocardial stunning at a much smaller dose than antihypertensive dose”. In addition, the “Percentage recovery 15 min.” value in assay [9] (setting [10]) and in assay [1] was 81.25% in each case. In addition, the “Percentage recovery 30 min.” value in assay [9] (setting [10]) is recorded as 87.15%; in [1], 78.12%. In addition, the “incidence of reperfusion induced arrhythmia” value in assay [9] (0.001 ug/ml at reperfusion, up to 90 min global ischemia) is given as “abolished”.
As for `CCc1ccc(N2CCN(CCCN3CCCC3=O)CC2)cc1` [Example 6, 1-[4-(4-ethylphenyl)piperazin-1-yl]-3-[2-oxopyrrolidin-1-yl]propane], in assay [1], the “Percentage recovery 15 min.” value stood at 103.03% and the “Percentage recovery 30 min.” value came to 60.60%.
On to `CCc1ccccc1N1CCN(CCCN2CCCC2=O)CC1` [Example 7, 1-[4-(2-ethylphenyl)piperazin-1-Yl]-3-[2-oxopyrrolidin-1-yl]propane], for which, in assay [1], the “Percentage recovery 15 min.” value is reported as 106.06% and the “Percentage recovery 30 min.” value was found to be 136.36%.
As to `O=C1CCCCN1CCCN1CCN(c2cccc(C(F)(F)F)c2)CC1` [Example 14, 1-[4-(3-trifluoromethylphenyl)piperazin-1-yl]-3-[2-oxopiperidin-1-yl]propane], the “Dur. (min.)” value in the assay on anaesthetized cat (10.0 umol/kg i.v.) is recorded as “Tr”.
As for `COC(=O)C1=C(C)NC(C)=C(C(=O)OC)C1c1ccccc1[N+](=O)[O-]` [Nifedipine, reference compound], in assay [9] (setting [11]), the “Percentage recovery 15 min.” value worked out at 0.66% and the “Percentage recovery 30 min.” value is reported as 0.0%.
